Key:
[1] = tested on: Beet Armyworm (BAW) (Spodoptera exigua); experiment: Bioassay on beet armyworm (BAW), 128-well diet tray assay; assay type: in vivo; settings: Spodoptera exigua; Beet armyworm, 50 μg/cm^2; read-out: % Mortality BAW 50 μg/cm^2
In short: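 Second-instar Spodoptera exigua larvae, one to five per well, on artificial diet treated with 50 μg/cm^2 compound in 90:10 acetone-water and dried, eight wells per compound. Held at 25 °C, 14:10 light-dark for five to seven days; percent mortality averaged over wells.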

[2] = tested on: Corn Earworm (CEW) (Helicoverpa zea); experiment: Bioassay on corn earworm (CEW), 128-well diet tray assay; assay type: in vivo; settings: Helicoverpa zea; Corn earworm, 50 μg/cm^2; read-out: % Mortality CEW 50 μg/cm^2
In short: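 Second-instar Helicoverpa zea larvae (one to five per well) placed on artificial diet treated with 50 μg/cm^2 compound in 90:10 acetone-water, dried, eight wells per compound. Held at 25 °C, 14:10 light-dark, five to seven days; percent mortality averaged over wells.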

SMILES | pest or weed control at 50 µg/cm2, 50 µg/cm2 [1] [%] | pest or weed control at 50 µg/cm2, 50 µg/cm2 [2] [%]
Cc1cc(C)c(N2/C(=N/N=C/c3ccc(-c4ncn(-c5ccc(OC(F)(F)F)cc5)n4)cc3)SCC2C)c(C)c1 (centres unmarked) [Compound 161C] | 50 to 100 | 50 to 100
COc1ccc(N2C(=O)CS/C2=N\N=C\c2ccc(-c3ncn(-c4ccc(OC(F)(F)F)cc4)n3)cc2)c(C)c1 [Compound 114C] | 50 to 100 | 50 to 100
COc1ccc(N2/C(=N/N=C/c3ccc(-c4ncn(-c5ccc(OC(F)(F)F)cc5)n4)cc3)SCC2C)c(C)c1 (centres unmarked) [Compound 162C] | 50 to 100 | 50 to 100
Cc1cccc(C)c1-n1c(C)cs/c1=N\N=C\c1ccc(-c2ncn(-c3ccc(OC(F)(F)F)cc3)n2)cc1 [Compound 175C] | 50 to 100 | 50 to 100
Cc1cccc(C)c1N1C(=O)CS/C1=N\N=C\c1ccc(-c2ccn(-c3ccc(OC(F)(F)F)cc3)n2)cc1 [Compound 103C] | 50 to 100 | 50 to 100
O=C1CS/C(=N\N=C\c2ccc(-c3ncn(-c4ccc(OC(F)(F)F)cc4)n3)cc2)N1c1c(Br)cccc1Br [Compound 99C] | 50 to 100 | 50 to 100
Cc1cccc(C)c1N1CS/C1=N\N=C\c1ccc(-c2ncn(-c3ccc(OC(F)(F)F)cc3)n2)cc1 [Compound 241C] | 50 to 100 | 50 to 100
COc1cccc(N2CCCS/C2=N\N=C\c2ccc(-c3ncn(-c4ccc(OC(F)(F)F)cc4)n3)cc2)c1 [Compound 206C] | 50 to 100 | 50 to 100
COCOCC(C)C(=O)OCS/C(=N\c1c(C)cccc1C)N/N=C/c1ccc(-c2ncn(-c3ccc(OC(F)(F)F)cc3)n2)cc1 (centres unmarked) [Compound 41C] | 50 to 100 | 50 to 100
Fc1cccc(F)c1N1CCS/C1=N\N=C\c1ccc(-c2ncn(-c3ccc(OC(F)(F)F)cc3)n2)cc1 [Compound 148C] | 50 to 100 | 50 to 100
Cc1cccc(C)c1/N=C(/N/N=C/c1ccc(-c2ncn(-c3ccc(OC(F)(F)F)cc3)n2)cc1)SCc1ccccc1 [Compound 10C] | 50 to 100 | 50 to 100
CC(C)c1ccccc1N1CS/C1=N\N=C\c1ccc(-c2ncn(-c3ccc(OC(F)(F)F)cc3)n2)cc1 [Compound 240C] | 50 to 100 | 50 to 100
COc1ccc(N2CCS/C2=N\N=C\c2ccc(-c3ncn(-c4ccc(OC(F)(F)F)cc4)n3)cc2)c(C)c1 [Compound 137C] | 50 to 100 | 50 to 100
Cc1cs/c(=N\N=C\c2ccc(-c3ncn(-c4ccc(OC(F)(F)F)cc4)n3)cc2)n1-c1ccccc1C(C)C [Compound 176C] | 50 to 100 | 50 to 100
CCc1cccc(C)c1N1C(=O)CCS/C1=N\N=C\c1ccc(-c2ncn(-c3ccc(OC(F)(F)F)cc3)n2)cc1 [Compound 225C] | 50 to 100 | 50 to 100
CC1CS/C(=N\N=C\c2ccc(-c3ncn(-c4ccc(OC(F)(F)F)cc4)n3)cc2)N1c1c(F)cccc1F (centres unmarked) [Compound 159C] | 50 to 100 | 50 to 100
CC(C)Cc1ccccc1N1CCS/C1=N\N=C\c1ccc(-c2ncn(-c3ccc(OC(F)(F)F)cc3)n2)cc1 [Compound 150C] | 50 to 100 | 50 to 100
FC(F)(F)Oc1ccc(-n2cnc(-c3ccc(/C=N/N=C4\SCCN4c4c(Cl)cccc4C(F)(F)F)cc3)n2)cc1 [Compound 149C] | 50 to 100 | 50 to 100
COc1cc(C)c(/N=C(/N/N=C/c2ccc(-c3ncn(-c4ccc(OC(F)(F)F)cc4)n3)cc2)SCC(=O)O)c(C)c1 [Compound 48C] | 50 to 100 | 50 to 100
COc1cc(C)c(/N=C(/N/N=C/c2ccc(-c3ncn(-c4ccc(OC(F)(F)F)cc4)n3)cc2)SCOC(=O)C2CCCO2)c(C)c1 (centres unmarked) [Compound 44C] | 50 to 100 | 50 to 100
FC(F)Oc1ccccc1N1CCCS/C1=N\N=C\c1ccc(-c2ncn(-c3ccc(OC(F)(F)F)cc3)n2)cc1 [Compound 200C] | 50 to 100 | 50 to 100
CC1CS/C(=N\N=C\c2ccc(-c3ncn(-c4ccc(OC(F)(F)F)cc4)n3)cc2)N1c1ccccc1OC(F)(F)F (centres unmarked) [Compound 168C] | 50 to 100 | 50 to 100

From US9018388B2, “Pesticidal compositions and processes related thereto” (Dow AgroSciences LLC, priority 2012, dated 2015)
